Data on 9 compounds can be found in PubChem BioAssay (NCI).

Test systems include A549 NSCLC; DMS 114 small cell lung; EKVX NSCLC; HL-60(TB) leukemia; KM12 colon; LOX IMVI melanoma; M14 melanoma; MOLT-4 leukemia; NCI-H226 lung; OVCAR-5 ovarian; OVCAR-8 ovarian; SK-MEL-28 melanoma; SNB-75 CNS; SR leukemia; UACC-257 melanoma; XF 498 CNS; ACHN renal; HOP-62 NSCLC; HOP-92 NSCLC; UACC-62 melanoma.
Assay in all cases: growth of human tumour cells (NCI), 48 h

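Step 1: Grow cells in 96-well plates. Step 2: Expose to compound for 48 hours at 5 concentrations. Step 3: Interpolate endpoints linearly; if unreached, use highest concentration. Definition used: TGI = concentration required for complete inhibition of growth.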

As to `Cn1c(=O)[nH]c2c(c1=O)C(=O)CN2`, the TGI in the test with A549 NSCLC, with DMS 114 small cell lung, with EKVX NSCLC, with HL-60(TB) leukemia, with KM12 colon and with LOX IMVI melanoma was greater than 100 µM throughout. Further, the TGI in the test with M14 melanoma, in the test on MOLT-4 leukemia, in the test on NCI-H226 lung, in the test on OVCAR-5 ovarian, with OVCAR-8 ovarian and in the test on SK-MEL-28 melanoma was greater than 100 µM in each case. For the same compound, the TGI with SNB-75 CNS, in the test with SR leukemia, with UACC-257 melanoma and in the test with XF 498 CNS was greater than 100 µM each time.
Turning to `S=C1Cc2c(-c3ccccc3)cc(-c3ccc(Cl)cc3)nc2-c2ccccc2N1`, the TGI in the test on A549 NSCLC is greater than 33.9 µM; in the test on ACHN renal, 2.69 µM; with EKVX NSCLC, greater than 27.1 µM; in the test with HL-60(TB) leukemia it was greater than 100 µM; with HOP-62 NSCLC, 3.16 µM; in the test with HOP-92 NSCLC it was 3.53 µM. Also, the TGI in the test on KM12 colon is 51.3 µM; in the test with LOX IMVI melanoma it was greater than 46.8 µM; with M14 melanoma it was greater than 38.5 µM; in the test on MOLT-4 leukemia, greater than 100 µM; with NCI-H226 lung, greater than 31.9 µM; in the test on OVCAR-5 ovarian it was 51.4 µM. Moreover, the TGI in the test on OVCAR-8 ovarian is 4.64 µM; in the test with SK-MEL-28 melanoma, greater than 31.9 µM; in the test with SNB-75 CNS, 3.14 µM; with SR leukemia it was greater than 100 µM; with UACC-257 melanoma it was 22.2 µM; in the test on UACC-62 melanoma it was greater than 20.7 µM.
Take `COc1ccc(N[C@@H]2c3cc4c(cc3C(c3cc(OC)c(O)c(OC)c3)[C@H]3C(=O)OCC32)OCO4)cc1OC` (stereo partly specified): the TGI with DMS 114 small cell lung is greater than 21.9 µM; with EKVX NSCLC it was greater than 100 µM; in the test on HOP-92 NSCLC it was greater than 100 µM; in the test with KM12 colon it was greater than 21.8 µM; in the test with LOX IMVI melanoma, greater than 100 µM; in the test with OVCAR-5 ovarian it was greater than 100 µM. In addition, the TGI is greater than 100 µM with OVCAR-8 ovarian; greater than 100 µM in the test on SK-MEL-28 melanoma; 38.5 µM with UACC-257 melanoma; greater than 39.2 µM with UACC-62 melanoma; greater than 61.8 µM in the test with XF 498 CNS.
In the case of `CN(C(=O)c1ccccc1)c1ccc2c(c1)C(=O)c1ccccc1C2=O`, the TGI in the test with ACHN renal, in the test with DMS 114 small cell lung, with EKVX NSCLC, in the test with HOP-62 NSCLC, in the test with HOP-92 NSCLC and in the test with KM12 colon was greater than 100 µM in each case. The TGI in the test on LOX IMVI melanoma, in the test with M14 melanoma, in the test with MOLT-4 leukemia, in the test with NCI-H226 lung, in the test on OVCAR-5 ovarian and in the test on OVCAR-8 ovarian was greater than 100 µM each time. The TGI in the test on SK-MEL-28 melanoma, in the test with SR leukemia, in the test on UACC-257 melanoma, in the test on UACC-62 melanoma and in the test with XF 498 CNS was greater than 100 µM each time.
Turning to `O=S(=O)(CF)OCCCCOS(=O)(=O)CF`, the TGI in the test with ACHN renal was greater than 100 µM; in the test with DMS 114 small cell lung, greater than 100 µM; with EKVX NSCLC, greater than 100 µM; in the test with HL-60(TB) leukemia, greater than 100 µM; in the test on HOP-92 NSCLC it was 82.6 µM; with LOX IMVI melanoma, greater than 100 µM. The TGI in the test with M14 melanoma, in the test with MOLT-4 leukemia, with NCI-H226 lung, in the test with OVCAR-8 ovarian, in the test with SK-MEL-28 melanoma and in the test on SNB-75 CNS was greater than 100 µM throughout. The same compound displayed a TGI in the test with UACC-62 melanoma greater than 100 µM.
Turning to `COC(=O)C(=O)C(C(C)=O)C(=O)C(=O)Nc1ccc(C)cc1C` (stereo unspecified), the TGI with A549 NSCLC, with ACHN renal, in the test on DMS 114 small cell lung, in the test with EKVX NSCLC, with HL-60(TB) leukemia and in the test on HOP-62 NSCLC was greater than 100 µM throughout. Also, the TGI with HOP-92 NSCLC, with KM12 colon, in the test with LOX IMVI melanoma, in the test on M14 melanoma, with MOLT-4 leukemia and with NCI-H226 lung was greater than 100 µM throughout. The TGI in the test on OVCAR-5 ovarian, in the test with OVCAR-8 ovarian, in the test with SK-MEL-28 melanoma, with SNB-75 CNS, in the test on SR leukemia and with UACC-257 melanoma was greater than 100 µM throughout. Also, the TGI in the test on UACC-62 melanoma and with XF 498 CNS was greater than 100 µM throughout.
As for `O=C(NCCN(CCNC(=O)c1cccc(=O)n1O)CCNC(=O)c1cccc(=O)n1O)c1cccc(=O)n1O`, the TGI with A549 NSCLC, in the test with ACHN renal, in the test with HL-60(TB) leukemia, with HOP-62 NSCLC, in the test with HOP-92 NSCLC and in the test on KM12 colon was greater than 100 µM in each case. In addition, the TGI in the test with M14 melanoma, with NCI-H226 lung, in the test on OVCAR-5 ovarian, with OVCAR-8 ovarian, with SK-MEL-28 melanoma and in the test on SNB-75 CNS was greater than 100 µM each time. Besides, the TGI in the test with SR leukemia, in the test with UACC-257 melanoma and with UACC-62 melanoma was greater than 100 µM each time.
As to `CCCCCC(/C=C/c1ncccc1OCCCCCC(=O)O)=N\NC1=NCCN1`, the TGI in the test on A549 NSCLC, with ACHN renal, in the test on DMS 114 small cell lung, with EKVX NSCLC, with HL-60(TB) leukemia and in the test with HOP-62 NSCLC was greater than 100 µM each time. Also, the TGI with HOP-92 NSCLC, in the test on KM12 colon, in the test with LOX IMVI melanoma, with M14 melanoma, with MOLT-4 leukemia and in the test on NCI-H226 lung was greater than 100 µM throughout. The TGI in the test on OVCAR-5 ovarian, with OVCAR-8 ovarian, with SK-MEL-28 melanoma, in the test with SNB-75 CNS, with SR leukemia and with UACC-62 melanoma was greater than 100 µM in each case. Also, the TGI with XF 498 CNS was 54.8 µM.
Take `N#CCCN(CCC#N)c1ccc(/C=C(/NC(=O)Nc2ccccc2Cl)NC(=O)c2cc([N+](=O)[O-])ccc2Cl)cc1`: the TGI in the test on A549 NSCLC, with ACHN renal, in the test with DMS 114 small cell lung, with EKVX NSCLC, in the test on HOP-62 NSCLC and in the test on HOP-92 NSCLC was greater than 100 µM in each case. For the same compound, the TGI in the test with KM12 colon, in the test on LOX IMVI melanoma, in the test on M14 melanoma, with MOLT-4 leukemia, in the test on NCI-H226 lung and with OVCAR-5 ovarian was greater than 100 µM each time. For the same compound, the TGI in the test with OVCAR-8 ovarian, with SK-MEL-28 melanoma, in the test on SR leukemia, in the test with UACC-62 melanoma and with XF 498 CNS was greater than 100 µM each time.
